Assay results: ChEMBL document CHEMBL6103584, “Hit to lead optimization of the 4-trifluoromethylquinoline derivatives as novel SGK1 inhibitors with potent anti-prostate cancer activity” (Eur J Med Chem, 2025)
The source made the active and inactive calls. The calls are words filed in the database; no cut-off is given here.

Assays:
[1] = organism: Homo sapiens; assay: Selectivity index, ratio of IC50 for inhibition of N-terminal GST-tagged truncated human SGK3 (119 to 496 residues) extracted from Sf21 cells to IC50 for inhibition of N-terminal GST-tagged truncated human SGK1 (61 to 431 residues) extracted from Sf21 cells
[2] = Toxicity in BALB/c nude mouse xenografted with human PC-3 cells assessed as toxic effect on liver at 0.5 to 2 mg/kg, ip measured for 14 days by H and E staining based analysis; assay type: organism-based; settings: in vivo, 336 h, dose 0.5-2 mg/kg, time 14 day
[3] = Toxicity in BALB/c nude mouse xenografted with human PC-3 cells assessed as rupture of alveolar epithelial cells in lung tissue at 0.5 to 2 mg/kg, ip measured for 14 days by H and E staining based analysis; assay type: organism-based; settings: in vivo, 336 h, dose 0.5-2 mg/kg, time 14 day
[4] = test system: PC-3; assay: Anti-tumor activity against human PC-3 cells xenografted in BALB/c nude mouse assessed as condensed nuclei at 0.5 to 2 mg/kg, ip measured for 14 days by H and E staining based analysis; assay type: functional, organism-based; settings: dose 0.5-2 mg/kg, time 14.0 day
[5] = Toxicity in BALB/c nude mouse xenografted with human PC-3 cells assessed as toxic effect on kidney at 0.5 to 2 mg/kg, ip measured for 14 days by H and E staining based analysis; assay type: organism-based; settings: in vivo, 336 h, dose 0.5-2 mg/kg, time 14 day
[6] = organism: Homo sapiens; assay: Selectivity index, ratio of IC50 for inhibition of N-terminal GST-tagged full-length human SGK2 (1 to 367 residues) extracted from Sf21 cells to IC50 for inhibition of N-terminal GST-tagged truncated human SGK1 (61 to 431 residues) extracted from Sf21 cells
[7] = Toxicity in BALB/c nude mouse xenografted with human PC-3 cells assessed as pulmonary bullae formation in lung tissue at 0.5 to 2 mg/kg, ip measured for 14 days by H and E staining based analysis; assay type: organism-based; settings: in vivo, 336 h, dose 0.5-2 mg/kg, time 14 day
[8] = Toxicity in BALB/c nude mouse xenografted with human PC-3 cells assessed as swelling of alveolar epithelial cells in lung tissue at 0.5 to 2 mg/kg, ip measured for 14 days by H and E staining based analysis; assay type: organism-based; settings: in vivo, 336 h, dose 0.5-2 mg/kg, time 14 day
[9] = test system: PC-3; assay: Anti-tumor activity against human PC-3 cells xenografted in BALB/c nude mouse assessed as cell degeneration at 0.5 to 2 mg/kg, ip measured for 14 days by H and E staining based analysis; assay type: functional, organism-based; settings: dose 0.5-2 mg/kg, time 14.0 day
[10] = Toxicity in BALB/c nude mouse xenografted with human PC-3 cells assessed as interstitial edema in renal tubules in kidney tissue at 0.5 to 2 mg/kg, ip measured for 14 days by H and E staining based analysis; assay type: organism-based; settings: in vivo, 336 h, dose 0.5-2 mg/kg, time 14 day
[11] = Toxicity in BALB/c nude mouse xenografted with human PC-3 cells assessed as change in lungs weight at 0.5 to 2 mg/kg, ip measured for 14 days by H and E staining based analysis; assay type: organism-based; settings: in vivo, 336 h, dose 0.5-2 mg/kg, time 14 day
[12] = Toxicity in BALB/c nude mouse xenografted with human PC-3 cells assessed as increase in volume of liver tissue at 0.5 to 2 mg/kg, ip measured for 14 days by H and E staining based analysis; assay type: organism-based; settings: in vivo, 336 h, dose 0.5-2 mg/kg, time 14 day
[13] = test system: PC-3; assay: Anti-tumor activity against human PC-3 cells xenografted in BALB/c nude mouse assessed as reduction in tumor weight at 0.5 to 2 mg/kg, ip measured for 14 days; assay type: functional, organism-based; settings: dose 0.5-2 mg/kg, time 14.0 day
[14] = test system: PC-3; assay: Inhibition of cell migration in human PC-3 cells at 0.5 to 1 uM measured after 24 hrs by wound healing assay; assay type: functional, cell-based; settings: dose 0.5-1 µM
[15] = Toxicity in BALB/c nude mouse xenografted with human PC-3 cells assessed as change in kidney weight at 0.5 to 2 mg/kg, ip measured for 14 days by H and E staining based analysis; assay type: organism-based; settings: in vivo, 336 h, dose 0.5-2 mg/kg, time 14 day
[16] = molecular target: T1, Serine/threonine-protein kinase Sgk1 (Homo sapiens) (UniProt O00141); assay: Inhibition of SGK1 in human PC-3 cells assessed as decrease in NEDD4-2 phosphorylation at Ser342 incubated for 48 hrs by Western blot analysis; assay type: cell-based; settings: dose 0.05-2 µM
T1 sequence (whole entry): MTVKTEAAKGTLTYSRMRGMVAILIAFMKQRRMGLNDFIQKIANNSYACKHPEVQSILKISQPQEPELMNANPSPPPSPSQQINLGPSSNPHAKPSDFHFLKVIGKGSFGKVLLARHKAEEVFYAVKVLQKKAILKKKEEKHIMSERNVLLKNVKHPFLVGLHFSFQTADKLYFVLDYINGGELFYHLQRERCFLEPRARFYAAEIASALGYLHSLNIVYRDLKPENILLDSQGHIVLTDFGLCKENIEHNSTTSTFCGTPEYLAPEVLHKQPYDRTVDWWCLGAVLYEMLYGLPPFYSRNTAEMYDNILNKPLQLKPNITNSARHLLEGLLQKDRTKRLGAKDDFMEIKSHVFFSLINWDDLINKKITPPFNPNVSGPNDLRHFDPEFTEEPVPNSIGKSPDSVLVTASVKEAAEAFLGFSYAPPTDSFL

[17] = molecular target: T1, Serine/threonine-protein kinase Sgk1 (Homo sapiens); assay: Inhibition of N-terminal GST-tagged truncated human SGK1 (61 to 431 residues) extracted from Sf21 cells at 10 uM preincubated for 10 mins followed by substrate/ATP addition measured after 50 mins by fluorescence based analysis relative to control; assay type: cell-free; settings: time 60.0 min
[18] = Toxicity in BALB/c nude mouse xenografted with human PC-3 cells assessed as change in liver weight at 0.5 to 2 mg/kg, ip measured for 14 days by H and E staining based analysis; assay type: organism-based; settings: in vivo, 336 h, dose 0.5-2 mg/kg, time 14 day
[19] = test system: Mus musculus; assay: In vivo inhibition of SGK1 in human PC-3 cells xenografted in BALB/c nude mouse at 0.5 to 2 mg/kg, ip measured for 14 days by Western blot analysis; assay type: functional, organism-based; settings: dose 0.5-2 mg/kg, time 14.0 day

Ratio IC50 [1]: 5 | Ratio IC50 [6]: 4.5 | inhibition [16]: Dose-dependent-effect | inhibition [17]: 95.3%
Compound: COc1ccc(NC(=O)c2cc3c(C(F)(F)F)cc(Nc4ccc(N5CCNCC5)cc4OC)nc3cc2OC)cc1
Activity [2]: Non-toxic | Activity [3]: Non-toxic | Activity [4]: Active | Activity [5]: Non-toxic | Activity [7]: Non-toxic | Activity [8]: Non-toxic | Activity [9]: Active | Activity [10]: Non-toxic | Activity [11]: Non-toxic | Activity [12]: Non-toxic | Activity [13]: Active | inhibition [14]: Active | Activity [15]: Non-toxic | Activity [18]: Non-toxic | inhibition [19]: Active
